Converted amounts (≈) assume the structure as drawn. Structures can show the parent of a compound that is named as a salt.
Experiments:
[1] = target: relaxed plasmid pBR322; assay: DNA intercalation/binding assay; conditions: pBR322 with calf thymus topoisomerase I, 30 minutes at 37° C.; read-out: Drug Concentration causing 50% Intercalation of DNA
Description: Compounds of the present invention were evaluated for their ability to intercalate/bind to DNA, using the procedure described in Nucleic Acids Research, 1987;15(15):6713. Specifically, 0.2 μg of relaxed plasmid pBR322 (Lucent, Ltd., Leicester, UK) was treated with 2 U of calf thymus topoisomerase I (Gibco/BRL, Gaithersburg, Md.) in buffer I (10 mM Tris-HCl (Ph 7.5), 50 mM KCl, 5 mM MgCl2, 1 mM Na2EDTA, 15 μg/mL bovine serum albumin) in the presence or absence of test compounds. Reaction were incubated for 30 minutes at 37° C.; volumes were typically 30 μL. Reactions were terminated by the addition of sodium dodecylsulfate (SDS) to 1% and proteinase K to 0.5 mg/mL final concentrations. After an additional 30 minutes at 37° C., one-tenth volume of 10×concentrated loading buffer (0.3% bromophenol blue, 16% Ficoll, 10 mM Na2HPO4) was added, and samples were loaded onto horizontal 0.8% agarose gels prepared in TAE buffer. Electrophoresis was at 22 V for 14 hours. Gels were then stained by soaking for 1.5 hours in deionized water containing 0.2 μg/mL of ethidium bromide, followed by destaining in deionized water for an additional 1.5 hours. Gels were examined and photographed following exposure to UV light. The concentration of the drug which induced a 50% change in the DNA by intercalation is represented by an intercalation IC50 and is recorded in Table 4.

[2] = test system: B. subtilis RB1; assay: Antibacterial assay, standard microtitration, MIC; format: cell-based; conditions: Bacillus subtilis, Gram positive, read-out: Minimum Inhibitory Concentrations, B. subtilis RB1
Description: (§1) The compounds of the present invention were tested against an assortment of gram negative and gram positive organisms using standard microtitration techniques (Cohen, et al., Antimicrob. Agents Chemother., 1985;28:766; Heifetz, et al. Antimicrob. Agents Chemother., 1974;6:124).

[3] = test system: E. coli MC4100; assay: Antibacterial assay, standard microtitration, MIC; format: cell-based; conditions: Escherichia coli, Gram negative, read-out: Minimum Inhibitory Concentrations, E. coli MC4100
Description: as §1

[4] = test system: S. pyogenes C203; assay: Antibacterial assay, standard microtitration, MIC; format: cell-based; conditions: Streptococcus pyogenes, Gram positive, read-out: Minimum Inhibitory Concentrations, S. pyogenes C203
Description: as §1

[5] = test system: E. coli B90; assay: Antibacterial assay, standard microtitration, MIC; format: cell-based; conditions: Escherichia coli, Gram negative, read-out: Minimum Inhibitory Concentrations, E. coli B90
Description: as §1

[6] = test system: S. aureus 29213; assay: Antibacterial assay, standard microtitration, MIC; format: cell-based; conditions: Staphylococcus aureus, Gram positive, read-out: Minimum Inhibitory Concentrations, S. aureus 29213
Description: as §1

[7] = test system: E. coli To1C; assay: Antibacterial assay, standard microtitration, MIC; format: cell-based; conditions: Escherichia coli, TO1C, read-out: Minimum Inhibitory Concentrations, E. coli To1C
Description: as §1

[8] = target: T1, E. coli gyrase (Escherichia coli, UniProt P0AES4+P0AES6); assay: DNA gyrase supercoiling inhibition assay; format: biochemical
T1 construct: purchased Lucent, Ltd., Leicester, UK
Description: The effects of test agents on the activity of DNA gyrase was determined by the supercoiling inhibition assay, following reaction conditions recommended by the enzyme supplier (Lucent, Ltd., Leicester, UK), as follows. Reactions were performed in buffer G (35 mM Tris-HCL (pH 7.5), 24 mM KCl, 4 mM MgCl2, 2 mM DTT, 1.8 mM spermidine, 1 mM ATP, 0.1 mg/mL bovine serum albumin). 0.25 μg of relaxed plasmid pBR322 (Lucent, Ltd., Leicester, UK) was reacted with 1 U E. coli gyrase (Lucent, Ltd., Leicester, UK), in the absence or presence of drugs, for 30 minutes at 37° C. Reactions were stopped by the addition of SDS and proteinase K to respective final concentrations of 1% and 0.5 mg/mL. After an additional 30 minutes at 37° C., one-tenth volume of 10×loading buffer (0.3% bromophenol blue, 16% Ficoll, 10 mM Na2HPO4) was added, and reactions were loaded onto agarose gels and electrophoresed as described above for intercalation assays. The concentration of drug inhibiting 50% of the supercoiling activity of DNA gyrase is given as an IC50 and recorded in Table 2.

T1 sequence (P0AES4 whole entry, one chain of several): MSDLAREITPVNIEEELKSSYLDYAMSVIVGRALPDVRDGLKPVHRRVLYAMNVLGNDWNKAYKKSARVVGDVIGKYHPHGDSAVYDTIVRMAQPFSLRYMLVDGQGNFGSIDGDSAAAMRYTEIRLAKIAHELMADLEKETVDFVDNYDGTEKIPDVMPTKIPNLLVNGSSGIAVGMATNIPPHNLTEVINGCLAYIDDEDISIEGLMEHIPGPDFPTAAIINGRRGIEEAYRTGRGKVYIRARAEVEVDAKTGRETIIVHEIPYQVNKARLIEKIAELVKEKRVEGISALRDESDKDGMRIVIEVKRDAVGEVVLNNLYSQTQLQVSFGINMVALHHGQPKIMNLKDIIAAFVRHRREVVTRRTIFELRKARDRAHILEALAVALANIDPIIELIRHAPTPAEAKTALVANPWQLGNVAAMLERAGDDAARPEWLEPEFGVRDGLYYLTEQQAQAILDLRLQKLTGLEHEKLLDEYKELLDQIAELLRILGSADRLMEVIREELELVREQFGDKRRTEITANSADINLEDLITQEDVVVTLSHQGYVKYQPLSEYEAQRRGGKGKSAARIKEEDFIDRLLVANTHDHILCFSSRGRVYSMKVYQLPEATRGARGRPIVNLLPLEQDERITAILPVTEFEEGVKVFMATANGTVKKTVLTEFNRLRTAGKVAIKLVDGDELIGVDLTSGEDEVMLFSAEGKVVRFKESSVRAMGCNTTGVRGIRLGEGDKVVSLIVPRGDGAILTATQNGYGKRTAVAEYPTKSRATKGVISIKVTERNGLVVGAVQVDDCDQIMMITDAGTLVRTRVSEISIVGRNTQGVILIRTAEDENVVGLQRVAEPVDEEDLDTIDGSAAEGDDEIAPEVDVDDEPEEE

SMILES	melting point [°C]	IC50 [1] [µM]	MIC [2] [mg/L]	MIC [3] [mg/L]	MIC [4] [mg/L]	MIC [5] [mg/L]	MIC [6] [mg/L]	MIC [7] [mg/L]	IC50 [8] [µM]
CCCCNC(=O)Nc1cc2c3c(cccc3c1)C(=O)N(O)C2=O [Example 100]	> 250	–	–	–	–	–	–	–	–
O=C1c2cccc3cc([N+](=O)[O-])cc(c23)C(=O)N1O [Example 1, 2-Hydroxy-5-nitro-benzo[de]isoquinoline-1,3-dione]	–	> 100	8 (≈ 31 µM)	4 (≈ 15.5 µM)	32 (≈ 124 µM)	2 (≈ 7.75 µM)	8 (≈ 31 µM)	–	–
CN1CCN(c2c(Cl)cc3c4c(cccc24)C(=O)N(O)C3=O)CC1 (as salt: TFA) [Example 98]	> 250	–	–	–	–	–	–	–	–
O=C1c2cccc3c([N+](=O)[O-])ccc(c23)C(=O)N1O [Example 2, 2-Hydroxy-6-nitro-benzo[de]isoquinoline-1,3-dione]	–	> 100	4 (≈ 15.5 µM)	8 (≈ 31 µM)	4 (≈ 15.5 µM)	4 (≈ 15.5 µM)	2 (≈ 7.75 µM)	–	–
CCCNC(=O)Nc1cc2c3c(cccc3c1)C(=O)N(O)C2=O [Example 102]	> 250	–	16 (≈ 51.1 µM)	> 64	> 64	32 (≈ 102 µM)	> 64	16 (≈ 51.1 µM)	–
O=C1c2cccc3c([SH]4CCNCC4)c(Cl)cc(c23)C(=O)N1O [Example 95]	240 to 242	–	–	–	–	–	–	–	–
CN1COc2cc3c4c(cccc4c2C1)C(=O)N(O)C3=O [Example 127]	247 to 249	–	–	–	–	–	–	–	–
CC1(CN)CCN(c2c(Cl)cc3c4c(cccc24)C(=O)N(O)C3=O)C1 (centres unmarked) [Example 89]	–	–	1 (≈ 2.78 µM)	4 (≈ 11.1 µM)	2 (≈ 5.56 µM)	1 (≈ 2.78 µM)	1 (≈ 2.78 µM)	0.5 (≈ 1.39 µM)	5.5
NCC1CCN(c2c(Cl)cc3c4c(cccc24)C(=O)N(O)C3=O)C1 (centres unmarked) (as salt: HCl) [Example 85]	229 to 232	–	–	–	–	–	–	–	–
O=C1c2cccc3c([SH]4CCNCC4)c([N+](=O)[O-])cc(c23)C(=O)N1O [Example 78]	280 to 283	–	–	–	–	–	–	–	–
CNC(=O)Nc1cc2c3c(cccc3c1)C(=O)N(O)C2=O [Example 101]	> 250	–	–	–	–	–	–	–	–
CCCCCN1COc2cc3c4c(cccc4c2C1)C(=O)N(O)C3=O [Example 129]	194 to 196	–	–	–	–	–	–	–	–
CC(=O)Nc1cc2c3c(cccc3c1[SH]1CCNCC1)C(=O)C(O)C2=O (centres unmarked) [Example 67]	292 to 295	–	–	–	–	–	–	–	–
CC(=O)Nc1cc2c3c(cccc3c1N1CCCCC1)C(=O)C(O)C2=O (centres unmarked) [Example 65]	252 to 255	–	–	–	–	–	–	–	–
CN(C)CCN1C(=O)c2cccc3cc(N)cc(c23)C1=O [Amonafide, amonafide, reference compound]	–	< 10	64 (≈ 226 µM)	64 (≈ 226 µM)	4 (≈ 14.1 µM)	16 (≈ 56.5 µM)	128 (≈ 452 µM)	–	–
Nc1cc2c3c(cccc3c1N1CCCCC1)C(=O)N(O)C2=O [Example 71]	244 to 248	–	2 (≈ 6.42 µM)	> 64	16 (≈ 51.4 µM)	4 (≈ 12.8 µM)	2 (≈ 6.42 µM)	4 (≈ 12.8 µM)	–
COc1cc2c3c(cccc3c1N)C(=O)N(O)C2=O [Example 30, 6-Amino-2-hydroxy-5-methoxy-benzo[de]isoquinoline-1,3-dione]	–	> 100	4 (≈ 15.5 µM)	8 (≈ 31 µM)	64 (≈ 248 µM)	4 (≈ 15.5 µM)	4 (≈ 15.5 µM)	2 (≈ 7.74 µM)	–
O=C1c2cccc3c(N4CC[C@H](O)C4)c(Cl)cc(c23)C(=O)N1O [Example 84]	197 to 201	–	–	–	–	–	–	–	–
O=C1c2cccc3c(N4CCNCC4)c([N+](=O)[O-])cc(c23)C(=O)N1O	300 to 302	–	–	–	–	–	–	–	–
O=C1c2cccc3cc(F)cc(c23)C(=O)N1O [Example 11, 5-Fluoro-2-hydroxy-benzo[de]isoquinoline-1,3-dione]	–	> 100	8 (≈ 34.6 µM)	8 (≈ 34.6 µM)	> 64	2 (≈ 8.65 µM)	64 (≈ 277 µM)	–	–
O=C1c2cccc3c4c(cc(c23)C(=O)N1O)OCOC4 [Example 45, 5-Hydroxy-11H-8,10-dioxa-5-aza-benzo[de]anthracene-4,6-dione]	–	–	0.25 (≈ 0.922 µM)	0.5 (≈ 1.84 µM)	8 (≈ 29.5 µM)	0.13 (≈ 0.479 µM)	1 (≈ 3.69 µM)	0.13 (≈ 0.479 µM)	–
CN1CCN(c2c([N+](=O)[O-])cc3c4c(cccc24)C(=O)N(O)C3=O)CC1 [Example 80]	320 to 322	–	–	–	–	–	–	–	–
Nc1cc2c3c(cccc3c1[SH]1CCNCC1)C(=O)N(O)C2=O [Example 73]	270 to 274	–	–	–	–	–	–	–	–
NC1CCN(c2c([N+](=O)[O-])cc3c4c(cccc24)C(=O)N(O)C3=O)C1 (centres unmarked) [Example 82]	259 to 263	–	–	–	–	–	–	–	–
Cl.N[C@H]1CCN(c2c(Br)cc3c4c(cccc24)C(=O)N(O)C3=O)C1 [Example 54, (S)-6-(3-Amino-pyrrolidin-1-yl)-5-bromo-2-hydroxy-1H-benzo[de]isoquinoline-1,3-dione, Hydrochloride]	–	–	2	2	4	0.5	8	0.5	–
CC1(CN)CCN(c2c(Cl)cc3c4c(cccc24)C(=O)N(O)C3=O)C1 (centres unmarked) (as salt: TFA) [Example 89]	160 to 166	–	–	–	–	–	–	–	–
Nc1ccc2c3c(cccc13)C(=O)N(O)C2=O [Example 7, 6-Amino-2-hydroxy-benzo[de]isoquinoline-1,3-dione]	–	> 100	16 (≈ 70.1 µM)	4 (≈ 17.5 µM)	> 64	4 (≈ 17.5 µM)	8 (≈ 35.1 µM)	4 (≈ 17.5 µM)	–
CN(C)c1c(Br)cc2c3c(cccc13)C(=O)N(O)C2=O [Example 53, 5-Bromo-6-dimethylamino-2-hydroxy-benzo[de]isoquinoline-1,3-dione]	–	–	2 (≈ 5.97 µM)	64 (≈ 191 µM)	32 (≈ 95.5 µM)	2 (≈ 5.97 µM)	4 (≈ 11.9 µM)	1 (≈ 2.98 µM)	–
O=C1c2cccc3c(N4CCCCC4)c(Cl)cc(c23)C(=O)N1O [Example 94]	228 to 229	–	–	–	–	–	–	–	–
O=C1c2cccc3c(N4CCCCC4)c([N+](=O)[O-])cc(c23)C(=O)N1O [Example 77]	252 to 254	–	–	–	–	–	–	–	–

— patent US6362181B1, “Isoquinolones” (Warner-Lambert Company, priority 1996, dated 2002)
